Some test systems named below: Hs-578T; UACC-257; SW-620; MOLT-4; 786-0; K562; DU-145; MDA-MB-231; UACC-62; IGROV-1; PC-3; NCI-H460; SNB-75; SF-539; NCI/ADR-RES; OVCAR-5; NCI-H522; SF-295; HCC 2998; RPMI-8226.
What all share (test): DTP human tumour cell line panel, 48 h

Molecules are shown by their SMILES.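 96-well plates; 48 h exposure; 5 concentrations. Endpoints by linear interpolation between flanking doses. Not reached: highest tested concentration assigned. At the GI50, growth is halved.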 The source made the active and inactive calls. No stated cut-off is given here; in the data, active = GI50 up to about 1.1 µM and inactive = higher.

What is called GI50 is the concentration that inhibits growth by half.

For `CC(=O)OC(=C(C#N)C#N)c1nccnc1C(C)=O`, the GI50 in the test on Hs-578T is 4.44 µM (inactive); in the test with UACC-257, > 20 µM (inactive); in the test with SW-620 it was > 20 µM (inactive); in the test on MOLT-4, > 20 µM (inactive); in the test with 786-0, > 20 µM (inactive); with K562, 11 µM (inactive). Moreover, the GI50 with DU-145 is > 20 µM (inactive); in the test on MDA-MB-231, > 20 µM (inactive); with UACC-62, > 20 µM (inactive); in the test on IGROV-1, > 20 µM (inactive); in the test on PC-3, > 20 µM (inactive); in the test with NCI-H460, 7.83 µM (inactive). The GI50 is 3.96 µM (inactive) with SNB-75; 7.24 µM (inactive) in the test on SF-539; > 20 µM (inactive) in the test on NCI/ADR-RES; > 20 µM (inactive) in the test on OVCAR-5; 19.2 µM (inactive) in the test on NCI-H522; 10.9 µM (inactive) in the test on SF-295. Moreover, in the test with HCC 2998, the GI50 is > 20 µM (inactive).
Consider `COC1=N[C@H](C(C)C)C(OC)=N[C@H]1Cc1ccc(C[C@@H]2N=C(OC)[C@@H](C(C)C)N=C2OC)s1`, for which the GI50 with Hs-578T was 88.3 µM (inactive); with UACC-257 it was 26.3 µM (inactive); in the test with SW-620, 39.9 µM (inactive); with MOLT-4 it was 20 µM (inactive); in the test with 786-0 it was 45.6 µM (inactive); with K562, 32.4 µM (inactive). In addition, the GI50 was 33.2 µM (inactive) with DU-145; 27.6 µM (inactive) with MDA-MB-231; 45.1 µM (inactive) in the test on UACC-62; > 100 µM (inactive) in the test with IGROV-1; 21.3 µM (inactive) in the test on PC-3; 58.3 µM (inactive) in the test on NCI-H460. Also, the GI50 in the test on SNB-75 was > 100 µM (inactive); in the test with SF-539, > 100 µM (inactive); in the test on NCI/ADR-RES, 52.6 µM (inactive); in the test on OVCAR-5 it was 17.5 µM (inactive); with NCI-H522, 23.7 µM (inactive); in the test with SF-295, 38.2 µM (inactive). Moreover, the GI50 with HCC 2998 was 34.2 µM (inactive).
`Cc1cc(-c2ccc(Cl)cc2)c(C#N)c(=S)n1C1OC(CO)C(O)C(O)C1O` (stereo not given): the GI50 in the test on Hs-578T, with UACC-257, with SW-620, in the test on MOLT-4, with 786-0 and in the test on DU-145 was > 100 µM (inactive) each time. In addition, the GI50 with MDA-MB-231 is > 100 µM (inactive); in the test with UACC-62, > 100 µM (inactive); in the test with IGROV-1, > 100 µM (inactive); with PC-3, > 100 µM (inactive); with NCI-H460, > 100 µM (inactive); with SNB-75, 20.1 µM (inactive). Further, the GI50 in the test with SF-539, in the test on NCI/ADR-RES, with OVCAR-5, with NCI-H522, in the test on SF-295 and in the test on HCC 2998 was > 100 µM (inactive) each time.
On to `CC(C)C1OC(N)=C(C#N)C1(C#N)C#N` (stereo not given), for which the GI50 in the test on Hs-578T is 53.7 µM (inactive); with UACC-257, 17.1 µM (inactive); in the test with SW-620, 14.3 µM (inactive); with 786-0, 29.4 µM (inactive); with K562 it was 8.49 µM (inactive); with DU-145 it was 51.3 µM (inactive). For the same molecule, the GI50 in the test on MDA-MB-231 was > 100 µM (inactive); in the test on UACC-62, 32.5 µM (inactive); in the test on IGROV-1, 51.4 µM (inactive); in the test on PC-3, > 100 µM (inactive); in the test with SNB-75, 33.8 µM (inactive); in the test with SF-539, 44.7 µM (inactive). Further, the GI50 was 58.1 µM (inactive) in the test on NCI/ADR-RES; > 100 µM (inactive) in the test with OVCAR-5; 29 µM (inactive) with RPMI-8226; 34.6 µM (inactive) with NCI-H522; > 100 µM (inactive) with SF-295; 24.5 µM (inactive) with HCC 2998.
Consider `O=C1NC(N2CCCC(CO)C2)=N/C1=C\c1ccccc1` (stereo not given), for which the GI50 in the test with Hs-578T, with UACC-257, in the test on SW-620, in the test with MOLT-4, in the test with 786-0 and in the test with DU-145 was > 100 µM (inactive) throughout. Moreover, the GI50 in the test with MDA-MB-231, in the test on UACC-62, with IGROV-1, in the test on PC-3, in the test on SNB-75 and with SF-539 was > 100 µM (inactive) throughout. In addition, the GI50 with NCI/ADR-RES, in the test with OVCAR-5, with RPMI-8226, in the test on NCI-H522, in the test with SF-295 and in the test with HCC 2998 was > 100 µM (inactive) in each case.
On to `CSc1nc(-c2ccccc2)[nH]c(=O)n1`, for which the GI50 in the test on Hs-578T, in the test on UACC-257, with SW-620, in the test with MOLT-4, with 786-0 and in the test on DU-145 was > 100 µM (inactive) each time. The GI50 in the test with MDA-MB-231, in the test with UACC-62, in the test on IGROV-1, with PC-3, in the test on SF-539 and with NCI/ADR-RES was > 100 µM (inactive) in each case. For the same molecule, the GI50 with OVCAR-5, in the test with RPMI-8226, in the test on NCI-H522, with SF-295 and in the test with HCC 2998 was > 100 µM (inactive) each time.
For the molecule `O=C(NCCNCCO)N/N=C/c1ccc([N+](=O)[O-])cc1`, the GI50 was 57.1 µM (inactive) in the test with Hs-578T; > 100 µM (inactive) with UACC-257; > 100 µM (inactive) in the test on SW-620; > 100 µM (inactive) in the test on MOLT-4; > 100 µM (inactive) in the test with 786-0; > 100 µM (inactive) in the test on K562. The GI50 with DU-145, in the test on MDA-MB-231, with UACC-62, in the test on IGROV-1, with PC-3 and in the test with NCI-H460 was > 100 µM (inactive) each time. In addition, the GI50 was 21.7 µM (inactive) in the test on SNB-75; > 100 µM (inactive) in the test on SF-539; > 100 µM (inactive) with NCI/ADR-RES; > 100 µM (inactive) in the test on OVCAR-5; > 100 µM (inactive) in the test with NCI-H522; > 100 µM (inactive) in the test on SF-295. The GI50 in the test with HCC 2998 was > 100 µM (inactive).
As for `O=c1oc2ncccc2n1Cc1ccc([N+](=O)[O-])cc1`, the GI50 with Hs-578T, in the test with UACC-257, with SW-620, in the test with MOLT-4, in the test with 786-0 and in the test on K562 was > 100 µM (inactive) throughout. Moreover, the GI50 in the test with DU-145, in the test on MDA-MB-231, in the test on UACC-62, in the test on IGROV-1, in the test with PC-3 and in the test on NCI-H460 was > 100 µM (inactive) in each case. Also, the GI50 is 80.7 µM (inactive) in the test with SNB-75; > 100 µM (inactive) with SF-539; > 100 µM (inactive) in the test with NCI/ADR-RES; > 100 µM (inactive) with OVCAR-5; > 100 µM (inactive) with RPMI-8226; > 100 µM (inactive) in the test on NCI-H522. For the same molecule, in the test with SF-295, the GI50 is > 100 µM (inactive).
Take `COC([C@@H](OC(=O)c1ccccc1)[C@H](OC(=O)c1ccccc1)C(O)COC(=O)c1ccccc1)n1cc(C)c(=O)[nH]c1=O` (stereo not given in full): the GI50 in the test with Hs-578T was 28.4 µM (inactive); in the test with UACC-257 it was 34.2 µM (inactive); in the test with SW-620, 21.3 µM (inactive); with MOLT-4 it was 3.6 µM (inactive); in the test on 786-0 it was 26.2 µM (inactive); in the test with K562, 13.7 µM (inactive). The GI50 is 44.5 µM (inactive) in the test with DU-145; 40.6 µM (inactive) with MDA-MB-231; 17.3 µM (inactive) in the test on UACC-62; 31.4 µM (inactive) in the test on IGROV-1; 4.83 µM (inactive) in the test on PC-3; 27.3 µM (inactive) with NCI-H460. For the same molecule, the GI50 in the test with SNB-75 is 22.5 µM (inactive); with NCI/ADR-RES, 28.6 µM (inactive); in the test with OVCAR-5, 19.1 µM (inactive); with RPMI-8226 it was > 100 µM (inactive); in the test with NCI-H522 it was 20.4 µM (inactive); with SF-295 it was 24.4 µM (inactive).
`COc1ccc2nccc(SCC(=O)O)c2c1`: the GI50 in the test with Hs-578T, in the test with UACC-257, with SW-620, with MOLT-4, with 786-0 and with K562 was > 100 µM (inactive) each time. Also, the GI50 in the test on DU-145, with MDA-MB-231, in the test on UACC-62, in the test on IGROV-1, with PC-3 and in the test on NCI-H460 was > 100 µM (inactive) each time. Moreover, the GI50 with NCI/ADR-RES, in the test with OVCAR-5, with RPMI-8226, in the test on NCI-H522 and in the test on SF-295 was > 100 µM (inactive) in each case.
For `Oc1nc(-c2cccc(F)c2)nc2ccccc12`, the GI50 in the test with Hs-578T was 15.7 µM (inactive); with UACC-257, > 91.6 µM (inactive); in the test on SW-620 it was > 87.7 µM (inactive); with MOLT-4, > 100 µM (inactive); in the test with 786-0, 38.6 µM (inactive); with K562, 0.461 µM (active). In addition, the GI50 was > 100 µM (inactive) in the test with DU-145; > 42.2 µM (inactive) in the test with MDA-MB-231; 23.1 µM (inactive) in the test with UACC-62; 57.1 µM (inactive) with IGROV-1; 55.5 µM (inactive) with PC-3; 36.1 µM (inactive) in the test with NCI-H460. The GI50 with SNB-75 is 16.6 µM (inactive); with NCI/ADR-RES, 45.5 µM (inactive); with OVCAR-5, > 100 µM (inactive); with NCI-H522 it was 43.9 µM (inactive); with SF-295 it was 39.4 µM (inactive); in the test on HCC 2998, 35.1 µM (inactive).
